Data taken from US10081628B2, “Apoptosis-inducing agents for the treatment of cancer and immune and autoimmune diseases” (AbbVie Inc., priority 2013, dated 2018).
Read-outs that look alike come from different tables or passages of the source.

Columns and labels:
GST-Bcl-2 = GST-Bcl-2 (Homo sapiens, UniProt P10415); assay: TR-FRET Bcl-2 binding assay (F-Bak peptide probe); settings: GST-Bcl-2 1 nM, F-Bak peptide probe 100 nM, Tb-anti-GST 1 nM; Wang's equation; '<' = below limit of detection
How it was run: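 Competitive TR-FRET displacement of F-Bak peptide probe from GST-Bcl-2 detected with Tb-anti-GST antibody; compounds serially diluted in DMSO from 50 μM (2× starting concentration). Mixtures incubated 3 h at room temperature, read at 340 nm excitation with 520 and 495 nm emission. Ki derived by Wang's equation.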

RS4;11 cells = assay: RS4;11 cell viability assay (CellTiter Glo); format: cell-based; settings: 10% human serum, 48 hours
How it was run: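 Cells seeded at 50,000 per well and exposed to compounds for 48 h at 37 C, 5% CO2 in the presence of 10% human serum. Viability read by CellTiter Glo; EC50 derived from percentage of viable cells versus untreated controls.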

lymphocytes = assay: Lymphocyte reduction in C57BL/6 mice; format: in vivo; settings: Mus musculus, ip
Procedure: An experiment was performed to evaluate the effect of Bcl-2 selective/Bcl-xL sparing compounds on immune cells and platelets, as evaluated in C57Bl/6 mice. Mice were treated four days with compounds (doses of 30 mg/kg, administered by intraperitoneal injection every day) and cell numbers were measured with a Cell Dyn hematology analyzer 24 hours after the first and last doses. Exposure of the compound (area under the curve) was calculated by using time points of 1, 6, 10 and 24 hours after the last dose.

[1] = 30 mg/kg intraperitoneal every day for four days, 24 hours after the last dose, read-out: Lymphocyte reduction % inh. day 4
[2] = 30 mg/kg intraperitoneal every day, 24 hours after the first dose, read-out: Lymphocyte reduction % inh. day 1

Sequence of GST-Bcl-2 (P10415 whole entry): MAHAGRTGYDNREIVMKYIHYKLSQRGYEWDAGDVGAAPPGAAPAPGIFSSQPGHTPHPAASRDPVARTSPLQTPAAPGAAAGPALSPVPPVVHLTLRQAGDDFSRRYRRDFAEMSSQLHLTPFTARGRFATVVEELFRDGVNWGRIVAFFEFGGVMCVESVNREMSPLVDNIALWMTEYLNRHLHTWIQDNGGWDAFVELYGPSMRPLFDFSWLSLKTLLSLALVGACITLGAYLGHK

Work on `CC1(C)CCC(CN2CCN(c3ccc(C(=O)NS(=O)(=O)c4ccc(NC[C@@H]5CCOC(C)(C)C5)c([N+](=O)[O-])c4)c(Oc4cnc5[nH]ccc5c4)c3)CC2)=C(c2ccc(Cl)cc2)C1` [Example 34, 4-(4-{[2-(4-chlorophenyl)-4,4-dimethylcyclohex-1-en-1-yl]methyl}piperazin-1-yl)-N-{[4-({[(4R)-2,2-dimethyltetrahydro-2H-pyran-4-yl]methyl}amino)-3-nitrophenyl]sulfonyl}-2-(1H-pyrrolo[2,3-b]pyridin-5-yloxy)benzamide] yielded a Ki (GST-Bcl-2) of less than 0.1 nM, an EC50 (RS4;11 cells) of 13 nM and an inhibition at 30 mg/kg (lymphocytes; [1]) of 61%. For the same compound, the inhibition at 30 mg/kg (lymphocytes; [2]) was less than 15%.

Work on `CC1(C)CCC(CN2CCN(c3ccc(C(=O)NS(=O)(=O)c4ccc(NCC5(C#N)CCOCC5)c([N+](=O)[O-])c4)c(Oc4cnc5[nH]ccc5c4)c3)CC2)=C(c2ccc(Cl)cc2)C1` [Example 46, 4-(4-{[2-(4-chlorophenyl)-4,4-dimethylcyclohex-1-en-1-yl]methyl}piperazin-1-yl)-N-[(4-{[(4-cyanotetrahydro-2H-pyran-4-yl)methyl]amino}-3-nitrophenyl)sulfonyl]-2-(1H-pyrrolo[2,3-b]pyridin-5-yloxy)benzamide] yielded a Ki (GST-Bcl-2) of less than 0.1 nM, an EC50 (RS4;11 cells) of 6.9 nM and an inhibition at 30 mg/kg (lymphocytes; [1]) of 35%. The inhibition at 30 mg/kg (lymphocytes; [2]) was 46%.

`CC1(C)CCC(CN2CCN(c3ccc(C(=O)NS(=O)(=O)c4ccc(NC[C@H]5COCC(C)(C)O5)c([N+](=O)[O-])c4)c(Oc4cnc5[nH]ccc5c4)c3)CC2)=C(c2ccc(Cl)cc2)C1` [Example 37, 4-(4-{[2-(4-chlorophenyl)-4,4-dimethylcyclohex-1-en-1-yl]methyl}piperazin-1-yl)-N-{[4-({[(2S)-6,6-dimethyl-1,4-dioxan-2-yl]methyl}amino)-3-nitrophenyl]sulfonyl}-2-(1H-pyrrolo[2,3-b]pyridin-5-yloxy)benzamide] gave a Ki (GST-Bcl-2) of less than 0.1 nM, an EC50 (RS4;11 cells) of 250 nM and an inhibition at 30 mg/kg (lymphocytes; [1]) of 22%. For the same compound, the inhibition at 30 mg/kg (lymphocytes; [2]) was 28%.

`C[C@@H]1C[C@H](CNc2ccc(S(=O)(=O)NC(=O)c3ccc(N4CCN(CC5=C(c6ccc(Cl)cc6)CC(C)(C)CC5)CC4)cc3Oc3cnc4[nH]ccc4c3)cc2[N+](=O)[O-])C[C@H](C)O1` [Example 31, 4-(4-{[2-(4-chlorophenyl)-4,4-dimethylcyclohex-1-en-1-yl]methyl}piperazin-1-yl)-N-{[4-({[(2R,4R,6S)-2,6-dimethyltetrahydro-2H-pyran-4-yl]methyl}amino)-3-nitrophenyl]sulfonyl}-2-(1H-pyrrolo[2,3-b]pyridin-5-yloxy)benzamide] showed a Ki (GST-Bcl-2) of less than 0.1 nM, an EC50 (RS4;11 cells) of 16 nM and an inhibition at 30 mg/kg (lymphocytes; [1]) of 55%. It also gave an inhibition at 30 mg/kg (lymphocytes; [2]) of 53%.

Compound `C[C@@H]1CO[C@@H](CNc2ccc(S(=O)(=O)NC(=O)c3ccc(N4CCN(CC5=C(c6ccc(Cl)cc6)CC(C)(C)CC5)CC4)cc3Oc3cnc4[nH]ccc4c3)cc2[N+](=O)[O-])CO1` [Example 44, 4-(4-{[2-(4-chlorophenyl)-4,4-dimethylcyclohex-1-en-1-yl]methyl}piperazin-1-yl)-N-{[4-({[(2S,5R)-5-methyl-1,4-dioxan-2-yl]methyl}amino)-3-nitrophenyl]sulfonyl}-2-(1H-pyrrolo[2,3-b]pyridin-5-yloxy)benzamide] has a Ki (GST-Bcl-2) of less than 0.1 nM, an EC50 (RS4;11 cells) of 4.7 nM and an inhibition at 30 mg/kg (lymphocytes; [1]) of 60%. The inhibition at 30 mg/kg (lymphocytes; [2]) was 66%.

Work on `CC1(C)CCC(CN2CCN(c3ccc(C(=O)NS(=O)(=O)c4ccc(NCC5COC5)c([N+](=O)[O-])c4)c(Oc4cnc5[nH]ccc5c4)c3)CC2)=C(c2ccc(Cl)cc2)C1` [Example 23, 4-(4-{[2-(4-chlorophenyl)-4,4-dimethylcyclohex-1-en-1-yl]methyl}piperazin-1-yl)-N-({3-nitro-4-[(oxetan-3-ylmethyl)amino]phenyl}sulfonyl)-2-(1H-pyrrolo[2,3-b]pyridin-5-yloxy)benzamide] yielded a Ki (GST-Bcl-2) of less than 0.1 nM, an EC50 (RS4;11 cells) of 23 nM and an inhibition at 30 mg/kg (lymphocytes; [1]) of 15%. The inhibition at 30 mg/kg (lymphocytes; [2]) was 37%.

`CC1(C)CCC(CN2CCN(c3ccc(C(=O)NS(=O)(=O)c4ccc(NCC5(O)COCCOC5)c([N+](=O)[O-])c4)c(Oc4cnc5[nH]ccc5c4)c3)CC2)=C(c2ccc(Cl)cc2)C1` [Example 25, 4-(4-{[2-(4-chlorophenyl)-4,4-dimethylcyclohex-1-en-1-yl]methyl}piperazin-1-yl)-N-[(4-{[(6-hydroxy-1,4-dioxepan-6-yl)methyl]amino}-3-nitrophenyl)sulfonyl]-2-(1H-pyrrolo[2,3-b]pyridin-5-yloxy)benzamide] gave a Ki (GST-Bcl-2) of less than 0.1 nM, an EC50 (RS4;11 cells) of 36 nM and an inhibition at 30 mg/kg (lymphocytes; [1]) of 15%. The inhibition at 30 mg/kg (lymphocytes; [2]) was 29%.

With `CC1(C)CCC(CN2CCN(c3ccc(C(=O)NS(=O)(=O)c4ccc(NCC5CCSCC5)c([N+](=O)[O-])c4)c(Oc4cnc5[nH]ccc5c4)c3)CC2)=C(c2ccc(Cl)cc2)C1` [Example 22, 4-(4-{[2-(4-chlorophenyl)-4,4-dimethylcyclohex-1-en-1-yl]methyl}piperazin-1-yl)-N-({3-nitro-4-[(tetrahydro-2H-thiopyran-4-ylmethyl)amino]phenyl}sulfonyl)-2-(1H-pyrrolo[2,3-b]pyridin-5-yloxy)benzamide] the Ki (GST-Bcl-2) was less than 0.1 nM, the EC50 (RS4;11 cells) was 28 nM and the inhibition at 30 mg/kg (lymphocytes; [1]) was 44%. For the same compound, the inhibition at 30 mg/kg (lymphocytes; [2]) was 40%.

`CC1(C)CCC(CN2CCN(c3ccc(C(=O)NS(=O)(=O)c4ccc(NN5CCOCC5)c([N+](=O)[O-])c4)c(Oc4cnc5[nH]ccc5c4)c3)CC2)=C(c2ccc(Cl)cc2)C1` [Example 16, 4-(4-{[2-(4-chlorophenyl)-4,4-dimethylcyclohex-1-en-1-yl]methyl}piperazin-1-yl)-N-{[4-(morpholin-4-ylamino)-3-nitrophenyl]sulfonyl}-2-(1H-pyrrolo[2,3-b]pyridin-5-yloxy)benzamide] showed a Ki (GST-Bcl-2) of less than 0.1 nM, an EC50 (RS4;11 cells) of 67 nM and an inhibition at 30 mg/kg (lymphocytes; [1]) of less than 15%. For the same compound, the inhibition at 30 mg/kg (lymphocytes; [2]) was less than 15%.

In the case of `CC1(C)CCC(CN2CCN(c3ccc(C(=O)NS(=O)(=O)c4ccc(NC[C@H]5CCCOCC5)c([N+](=O)[O-])c4)c(Oc4cnc5[nH]ccc5c4)c3)CC2)=C(c2ccc(Cl)cc2)C1` [Example 20, 4-(4-{[2-(4-chlorophenyl)-4,4-dimethylcyclohex-1-en-1-yl]methyl}piperazin-1-yl)-N-[(3-nitro-4-{[(4S)-oxepan-4-ylmethyl]amino}phenyl)sulfonyl]-2-(1H-pyrrolo[2,3-b]pyridin-5-yloxy)benzamide], the Ki (GST-Bcl-2) is reported as less than 0.1 nM, the EC50 (RS4;11 cells) is reported as 19 nM and the inhibition at 30 mg/kg (lymphocytes; [1]) is reported as 57%. The inhibition at 30 mg/kg (lymphocytes; [2]) was 20%.

`C[C@@H]1CO[C@H](CNc2ccc(S(=O)(=O)NC(=O)c3ccc(N4CCN(CC5=C(c6ccc(Cl)cc6)CC(C)(C)CC5)CC4)cc3Oc3cnc4[nH]ccc4c3)cc2[N+](=O)[O-])CO1` [Example 24, 4-(4-{[2-(4-chlorophenyl)-4,4-dimethylcyclohex-1-en-1-yl]methyl}piperazin-1-yl)-N-{[4-({[(2R,5R)-5-methyl-1,4-dioxan-2-yl]methyl}amino)-3-nitrophenyl]sulfonyl}-2-(1H-pyrrolo[2,3-b]pyridin-5-yloxy)benzamide] showed a Ki (GST-Bcl-2) of less than 0.1 nM, an EC50 (RS4;11 cells) of 14 nM and an inhibition at 30 mg/kg (lymphocytes; [1]) of 58%. It also gave an inhibition at 30 mg/kg (lymphocytes; [2]) of 48%.
